Laboratory results reported in patent US20020058244A1, “Method for detecting uracil biosynthesis inhibitors and their use as herbicides” (priority 2000, published 2002).
“Also recorded” adds a separate entry of the source. Read-outs that look alike come from different tables or passages of the source.

Assays:
grass species = test: Greenhouse herbicide efficacy, preemergence and post-emergence, whole plant injury; format: in vivo; conditions: preemergence and post-emergence applications
Excerpt: (§1) The compounds were applied to flats containing individually potted plant species as post-emergent treatments, or seeded flats without emerged plants for preemergent treatments. The compounds were delivered in an 80% acetone solution plus 0.2% X-77. After two or three weeks of treatment, plants were rated compared to controls on a scale of 0 to 9 where 0 represents no injury and 9 represents 100% injury.

wheat = test: Greenhouse herbicide efficacy, crop safety; format: in vivo; conditions: preemergence and post-emergence applications
Excerpt: as §1

Arabidopsis = Arabidopsis 96 well microtiter plate injury and reversal test; format: in vivo; conditions: for reversal of lethal effects by uridine: 100 μM uridine; for uracil biosynthesis inhibitory activity: reversal assay, see Table III
Procedure: The compounds were tested in a 96 microtiter well plate containing various concentrations of probe compound with or without intermediates of the pyrimidine and purine biosynthesis pathways to detect reversal of injury. Plates were filled with 0.7% agar medium, seeded with Arabidopsis, and placed in a growth chamber for several days to allow for seed germination and plant growth. Arabidopsis plates were rated on a scale from 0 to 9 where 0 represents no injury, and 9 represents no germination. In addition, injury symptoms observed were recorded.

[1] = tested on: uracil biosynthesis pathway; test: [14C]-carbamoyl aspartate incorporation into uracil/uridine and orotate in soybean cell cultures; format: cell-based
Procedure: Soybean suspension cultures in the linear growth phase were used for [^14C]carbamoyl aspartate uptake and incorporation studies. Cells were treated with 0.01 uM [^14C]carbamoyl aspartate (approximately 200,000-400,000 dpm) with or without 100 uM compound “B”. Over time, aliquots were harvested by filtration, and rinsed thoroughly with potassium phosphate buffer, pH 3.11. Aliquots of uptake media and rinse were counted using a liquid scintillation spectrophotometer to determine percent uptake. Cells were immediately weighed, ground to a fine powder in liquid nitrogen, and suspended in 50% methanol. The homogenate was centrifuged at 10,000 g for 20 min. A portion of the pellet was weighed out and combusted to determine dpm's associated with this fraction. An aliquot of the supernatant was counted to determine the amount of label in the soluble fraction. Recovery of applied radiolabeled [^14C]carbamyol aspartate was 90-100%.
The soluble supernatant was concentrated overnight by lyophilization, and the extract was resuspended in 1 ml potassium phosphate buffer, pH 3.11. For HPLC analysis an anion exchange column was used with 85:15% potassium phosphate buffer, pH 3.11 and acetonitrile as running buffers. Fractions (1 ml) were collected for 20 min (flow rate […]), and counted using a liquid scintillation counter (LSC). UV absorbance was analyzed at 260 and 275 nm as the optimum absorbency wavelengths for UMP and orotate, respectively. Standards were used to identify the various peaks from the HPLC profile. Standard retention times under these conditions were: 3-4 min uracil/uridine, 7-9 min carbamoyl aspartate, 11-13 min UMP, and 17-19 min orotate.

OPRTase/ODCase = test: In vitro enzymatic conversion of [14C]-orotate to UMP, cell free extract from corn root tissue; format: biochemical; conditions: for effect on OPRTase/ODCase activity (conversion of [14C]-orotate to UMP): cell free extract
Procedure: (§2) Etiolated corn roots and shoots or soybean suspension cells were used as tissue. Corn seedlings were germinated on vermiculite for 4 days in the dark at 26_C. and roots and shoots harvested separately. The soybean cells were grown in media consisting of Muashige and Skoog salts (Physiol. Plant (1962) 15:473-497) purchased from Gibco/BRL, vitamins (glycine 2 mg/L, thiamine 0.1 mg/L, nicotinic acid 0.5 mg/L, pyridoxine-HCl 0.5 mg/L), myo-inositol (100 mg/L), 2,4-D ([…]), and 30 g/L sucrose. Cell cultures are grown at 25° C. with gentle shaking. Cultures were transfered every 7 days to new growth media.
(§3) Approximately 5-10 g plant tissue were ground in liquid nitrogen and resuspended in 1:2 (w/v) homogenization buffer (30 mM KPO4^−; 25 mM […], 5 mM MgCl2, 5 mM ascorbic acid, pH 7.2). The homogenate was centrifuged at 10,000 g for 20 min, and the supernatant desalted using BioRad columns. The desalted supernatant was used for OPRTase/ODCase enzyme assays. For DHOD enzyme extraction, the supernatant was further centrifuged at 100,000 g for 45 min to obtain a microsomal pellet. The microsomal pellet was resuspended in 3-4 ml resuspension buffer (70 mM Tris-base, pH 7.4) containing 1% Triton X-100.
All enzyme assays were performed according to Rawls, J. M. (1978) Anal. Biochem. 86 (1): 107-117 and Cleaveland et al. (1995). Biochem. Pharm. 49(7):947-954. Enzyme assays were performed in a total volume of 200 ul with 1 uM [^14C]carbamoyl aspartate, [^14C]dihydroorotate or [^14C]orotate as substrates, and 1-5 mM probe compound or barbiturate as inhibitors. The [^14C]carbamoyl aspartate and [^14C]dihydroorotate assay was performed using a potassium phosphate buffer, pH 7.4 with 12 mM NAD^+, and 10 mM MgCl2. […] Over time, 25 ul aliquots were taken from the reaction tube and boiled for 5 min to stop the reaction. Samples were spotted onto cellulose TLC plates and run using 0.1 M potassium phosphate buffer, 100% ammonium sulfate, and 1-propanol (10:6:1). Plates were developed using a TLC plate radioisotope detector. Orotate and UMP standards were run next to unknowns to identify the conversion of [^14C]orotate to [^14C]UMP in the enzyme assay.

DHOD = test: In vitro conversion of [14C]dihydroorotate to orotate, corn root microsomal preparation; format: biochemical
Procedure: as §2, §3
(§4) All enzyme assays were performed according to Rawls, J. M. (1978) Anal. Biochem. 86 (1): 107-117 and Cleaveland et al. (1995). Biochem. Pharm. 49(7):947-954. Enzyme assays were performed in a total volume of 200 ul with 1 uM [^14C]carbamoyl aspartate, [^14C]dihydroorotate or [^14C]orotate as substrates, and 1-5 mM probe compound or barbiturate as inhibitors. The [^14C]carbamoyl aspartate and [^14C]dihydroorotate assay was performed using a potassium phosphate buffer, pH 7.4 with 12 mM NAD^+, and 10 mM MgCl2. The [^14C]orotate enzyme assay was performed using Tris buffer, pH 8.8 with 12 mM PRPP and 10 mM MgCl2. Over time, 25 ul aliquots were taken from the reaction tube and boiled for 5 min to stop the reaction. Samples were spotted onto cellulose TLC plates and run using 0.1 M potassium phosphate buffer, 100% ammonium sulfate, and 1-propanol (10:6:1). Plates were developed using a TLC plate radioisotope detector. Orotate and UMP standards were run next to unknowns to identify the conversion of [^14C]orotate to [^14C]UMP in the enzyme assay.

DHO = test: In vitro conversion of [14C]dihydroorotate to carbamoyl aspartate, corn root microsomal preparation; format: biochemical
Procedure: as §2, §3, §4

[2] = Stability in aqueous solution by mass spectroscopy and NMR; format: physicochemical; conditions: for half-life: aqueous solution
Procedure: The stability analysis of the compound “B”, compound “C”, compound “G”, and compound “E” compounds was performed using a Hewlett Packard HP1100 LC system coupled to a Micromass Platfom-LC mass spectrometer operating with an electrospray ionization source. In positive ion electrospray, AC12254 82A produced molecules at m/z 112(M^+), m/z 153 (M+41) at a cone voltage of 30V. Retention time of AC 12254 82A was 12.54 min with absorption maxima of 248 and 314 nm.
Column: Hypersil Spherisorb Waters ODS(2), 3.6×150 mm
Eluent: 60% acetonitrile, 40% water (0.1% formic acid)
Photodiode Array Detection: Scan Range: 190-600 nm
1H NMR was taken in DMSO-d6 on a 500 MHZ Bruker NMR Spectrometer. […] Each had 5 protons as follows: NH, 2OH and 2 CH.

ODCase = biological target: T1, ODCase (Rattus norvegicus, UniProt A0ACM8Q7Z8); conditions: rat brain tissue; cited from earlier work
T1 construct: host or cells: rat brain tissue
T1 sequence (A0ACM8Q7Z8 entry or part of it): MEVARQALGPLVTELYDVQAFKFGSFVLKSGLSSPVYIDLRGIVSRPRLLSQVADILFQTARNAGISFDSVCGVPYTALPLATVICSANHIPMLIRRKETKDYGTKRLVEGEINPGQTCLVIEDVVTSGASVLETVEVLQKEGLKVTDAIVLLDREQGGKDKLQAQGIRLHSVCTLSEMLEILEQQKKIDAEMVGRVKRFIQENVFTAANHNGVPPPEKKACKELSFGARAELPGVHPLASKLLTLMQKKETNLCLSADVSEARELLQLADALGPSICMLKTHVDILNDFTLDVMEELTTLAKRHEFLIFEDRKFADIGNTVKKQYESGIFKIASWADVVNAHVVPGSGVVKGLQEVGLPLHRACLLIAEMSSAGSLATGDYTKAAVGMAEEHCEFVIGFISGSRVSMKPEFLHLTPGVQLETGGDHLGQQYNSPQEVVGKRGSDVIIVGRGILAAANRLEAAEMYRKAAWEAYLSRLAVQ

O=C1NN=C/C1=C/Nc1ccc(F)cc1F [B, 4-[[(2,4-difluorophenyl)amino]methylene]-2,4-dihydro-3H-pyrazol-3-one]
herbicidal effect, injury (grass species): ≥ 50% | crop safety (wheat): safety on wheat | germination of Arabidopsis seeds (Arabidopsis; 1 μM): normal germination | germination of Arabidopsis seeds (Arabidopsis; 16 μM): partial germination | growth inhibition (Arabidopsis; 30 uM combined with 100 uM uracil): 0% | germination of Arabidopsis seeds (Arabidopsis; 50 μM): not observed | germination of Arabidopsis seeds (Arabidopsis; 100 μM): not observed | reversal of injury by uracil, UMP and uridine (Arabidopsis; 100 uM antidote in growth media): reversed | reversal of lethal effects by uridine (Arabidopsis; highest tested concentration of compound): does not reverse | reversal of lethal effects by uridine (Arabidopsis; lower concentrations of compound (Rows 2-4)): reversed | germination of Arabidopsis seeds (Arabidopsis; 500 μM): not observed | inhibition at 30 µM (Arabidopsis; Arabidopsis thaliana, 30 uM, compound alone, read-out: growth inhibition): 50% | IC50 (Arabidopsis; Arabidopsis thaliana, 96 well microtiter plate, read-out: estimated IC50 on Arabidopsis): 30 µM | reversal of herbicidal effects by orotate or OMP (Arabidopsis; in vivo): did not reverse | reversal of herbicidal effects by vitamins or purines (Arabidopsis; in vivo): Neither vitamins nor purines reversed | reversal of lethal effects by adenine, cytosine, guanine, and thymidine (Arabidopsis; in vivo): did not reverse | incorporation of radiolabeled carbamoyl aspartate into uracil/uridine ([1]; 50 μM): 25% | incorporation of radiolabeled carbamoyl aspartate into uracil/uridine ([1]; 100 μM): 10% | incorporation of [14C]-carbamoyl aspartate into orotate peak (16-19 min) ([1]; 100 uM, HPLC profile FIG. 6): 70% | incorporation of radiolabeled carbamoyl aspartate into uracil/uridine ([1]; 100 μM, listed as probe compound): 19% | incorporation of radiolabeled carbamoyl aspartate into orotic acid ([1]; 1 and 10 μM): 0-5% | incorporation of radiolabeled carbamoyl aspartate into uracil/uridine ([1]; 1 and 10 μM): 80-90% | incorporation of radiolabeled carbamoyl aspartate into orotic acid ([1]; 50 and 100 μM): 45-60% | IC50 ([1]; Glycine max, soybean cell cultures, estimated, read-out: IC50 of inhibition of [14C]-carbamoyl aspartate incorporation): ~50 µM | radiolabeled orotate converted to UMP (OPRTase/ODCase; 15 minutes after treatment, 100 μM PRPP, untreated control 55%): 55% | effect on OPRTase/ODCase activity (conversion of [14C]-orotate to UMP) (OPRTase/ODCase): does not affect | effect on OPRTase/ODCase activity (conversion of [14C]-orotate to UMP) (OPRTase/ODCase; listed as probe compound): did not inhibit | effect on DHOD activity (dihydroorotate converted to orotate) versus untreated control (DHOD): no difference | effect on DHOD activity (dihydroorotate converted to orotate) versus untreated control (DHOD; listed as probe compound): did not inhibit | effect on DHO activity (dihydroorotate converted to carbamoyl aspartate) versus untreated control (DHO): no difference | effect on DHO activity (dihydroorotate converted to carbamoyl aspartate) versus untreated control (DHO; listed as probe compound): did not inhibit | half-life [2]: < 24 h

CN1N=CC(=CNc2ccc(F)cc2F)C1=O [G, 4-[[(2,4-difluorophenyl)amino]methylene]-2,4-dihydro-2-methyl-3H-pyrazol-3-one]
uracil biosynthesis inhibitory activity (Arabidopsis): only marginal | stability in aqueous solution [2]: relatively stable | half-life [2]: > 24 h

CN(C)C=C1C=NNC1=O [E, 4-[(dimethylamino)methylene]-2,4-dihydro-3H-pyrazol-3-one]
uracil biosynthesis inhibitory activity (Arabidopsis): significant | stability in aqueous solution [2]: stable in aqueous solution with no hydrolysis detected; also recorded: stable

O=C(O)C1C=NNC1=O (stereo not shown) [J, 4,5-dihydro-5-oxo-1H-pyrazole-4-carboxylic acid; or 2,3-dihydro-3-oxo-1H-pyrazole-4-carboxylic acid]
effect on DHOD activity (dihydroorotate converted to orotate) versus untreated control (DHOD): no difference | effect on DHO activity (dihydroorotate converted to carbamoyl aspartate) versus untreated control (DHO): no difference

O=C1CC(=O)N([C@@H]2O[C@H](COP(=O)(O)O)[C@@H](O)[C@H]2O)C(=O)N1 [ribotide of barbiturate]
Ki (ODCase): 0.0041 µM

O=c1cnn([C@@H]2O[C@H](CO)[C@@H](O)[C@H]2O)c(=O)[nH]1 [Compound 6-Azauridine, 6-Azauridine, reference compound]
effect on OPRTase/ODCase activity (conversion of [14C]-orotate to UMP) (OPRTase/ODCase): not shown to inhibit

O=c1[nH][nH]cc1C=NO [D, 2,3-dihydro-3-oxo-1H-pyrazole-4-carboxaldehyde-4-oxime]
effect on DHOD activity (dihydroorotate converted to orotate) versus untreated control (DHOD): no difference | effect on DHO activity (dihydroorotate converted to carbamoyl aspartate) versus untreated control (DHO): no difference
